The subject of experiment [1] is velvetleaf. The experiment can be described thus: Test A pre-/postemergence herbicide test. The format is in vivo, Abutilon theophrasti. Particulars: 1000 g ai/ha. An outline of the steps: (§1)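 Greenhouse pot test with pre- and postemergence application of surfactant-containing solvent formulations. Postemergence plants were 2–10 cm, one- to two-leaf stage. Response scored visually after ~10 days, 0 (no effect) to 100 (complete control).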

In experiment [2] the test system is cupgrass, woolly. The experiment can be described thus: Test C pre-/postemergence herbicide test. The format is in vivo, Eriochloa villosa. The text has this:
Seeds of plant species selected from blackgrass (Alopecurus myosuroides), ryegrass, Italian (Italian ryegrass, Lolium multiflorum), wheat (winter wheat, Triticum aestivum), galium (catchweed bedstraw, Galium aparine), corn (Zea mays), crabgrass, large (large crabgrass, Digitaria sanguinalis), foxtail, giant (giant foxtail, Setaria faberii), johnsongrass (Sorghum halepense), lambsquarters (Chenopodium album), morningglory (Ipomoea coccinea), nutsedge, yellow (yellow nutsedge, Cyperus esculentus), pigweed (Amaranthus retroflexus), ragweed (common ragweed, Ambrosia elatior), soybean (Glycine max), barnyardgrass (Echinochloa crus-galli), oilseed rape (Brassica napus), waterhemp (common waterhemp, Amaranthus rudis), kochia (Kochia scoparia), oat, wild (wild oat, Avena fatua), surinam grass (Brachiaria decumbens), foxtail, green (green foxtail, Setaria viridis), goosegrass (Eleusine indica), bromegrass, downy (downy bromegrass, Bromus tectorum), nightshade (eastern black nightshade, Solanum ptycanthum), cocklebur (common cocklebur, Xanthium strumarium), cupgrass, woolly (woolly cupgrass, Eriochloa villosa), bermudagrass (Cynodon dactylon), sunflower, (common oilseed sunflower, Helianthus annuus), Russian thistle (Salsola kali) and velvetleaf (Abutilon theophrasti) were planted into a blend of loam soil and sand and treated preemergence with test chemicals formulated in a non-phytotoxic solvent mixture which included a surfactant. At the same time, plants selected from these crop and weed species and also barley (winter barley, Hordeum vulgare), […]), chickweed (common chickweed, Stellaria media), deadnettle (henbit deadnettle, Lamium amplexicaule), and canarygrass (littleseed canarygrass, Phalaris minor) were planted in pots containing Redi-Earth® planting medium (Scotts Company, 14111 Scottslawn Road, Marysville, Ohio 43041) comprising spaghnum peat moss, vermiculite, wetting agent and starter nutrients and treated with postemergence applications of test chemicals formulated in the same manner. Plants ranged in height from 2 to 18 cm (1- to 4-leaf stage) for postemergence treatments. Treated plants and controls were maintained in a greenhouse for 13 to 15 days, after which time all species were compared to controls and visually evaluated. Plant response ratings, summarized in Table C, are based on a scale of 0 to 100 where 0 is no effect and 100 is complete control. A dash (-) response means no test result.

Experiment [3] concerns galium. The experiment can be described thus: Test A postemergence herbicide test. The format is in vivo, Galium aparine. In short, it runs like this: (§2)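 Plants at the one- to two-leaf stage, 2–10 cm tall, grown in loam/sand pots, received postemergence sprays of the test chemicals. After about 10 days in the greenhouse, injury was scored visually against untreated controls on a 0–100 scale (0 none, 100 complete control).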

For experiment [4], the system named is sedge, umbrella. The experiment can be described thus: Test C flooded paddy test. The format is in vivo, Cyperus difformis. Particulars: Flood, scale of 0 to 100 where 0 is no effect and 100 is complete control, 13 to 15 days. In short, it runs like this:
(§3)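 Plants grown to the 2-leaf stage; pots flooded to 3 cm above soil and compound applied directly into the paddy water, depth kept throughout. Greenhouse 13 to 15 days, then visual rating vs untreated controls on 0–100 scale (0 no effect, 100 complete control); dash means no result.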

The subject of experiment [5] is kochia. The experiment can be described thus: Test A pre-/postemergence herbicide test. The format is in vivo, Kochia scoparia. An outline of the steps: as §1
The test system of experiment [6] is ragweed. The experiment can be described thus: Test A pre-/postemergence herbicide test. The format is in vivo, Ambrosia elatior. In short, it runs like this: as §1
The test system of experiment [7] is rice. The experiment can be described thus: Test C flooded paddy test. The note with it: Flood, scale of 0 to 100 where 0 is no effect and 100 is complete control, 13 to 15 days. The format is in vivo, Oryza sativa. In short, it runs like this:
as §3

Experiment [8] relates to ducksalad. The experiment can be described thus: Test C flooded paddy test. The format is in vivo, Heteranthera limosa. Particulars: Flood, scale of 0 to 100 where 0 is no effect and 100 is complete control, 13 to 15 days. An outline of the steps:
as §3

The test system of experiment [9] is ryegrass, Italian. The experiment can be described thus: Test A pre-/postemergence herbicide test. The format is in vivo, Lolium multiflorum. An outline of the steps:
as §1

Experiment [10] deals with blackgrass. The experiment can be described thus: Test A postemergence herbicide test. The format is in vivo, Alopecurus myosuroides. In short, it runs like this: as §2
[11] abbreviates: Postemergence, 0 to 100 scale (0 no effect, 100 complete control).
Setting [12] is: Preemergence, visual rating on 0 to 100 scale (0 no effect, 100 complete control), approx. 10 days.
Where [13] appears, read: Preemergence, 31 g ai/ha, scale 0 to 100 (0 no effect, 100 complete control).
[14] abbreviates: Preemergence, 62 g ai/ha, scale 0 to 100.
Where [15] appears, read: Preemergence, 125 g ai/ha, scale 0 to 100 (0 no effect, 100 complete control).
Setting [16] is: Preemergence, 250 g ai/ha, scale 0 to 100 (0 no effect, 100 complete control).
Setting [17] is: 125 g ai/ha, visual rating on 0 to 100 scale (0 no effect, 100 complete control), approx. 10 days.
The mark [18] stands for this setting: 500 g ai/ha, 0 to 100 scale (0 no effect, 100 complete control).
[19] abbreviates: Postemergence, 125 g ai/ha, visual rating on 0 to 100 scale (0 no effect, 100 complete control), approx. 10 days.
[20] abbreviates: Postemergence, 500 g ai/ha, 0 to 100 scale (0 no effect, 100 complete control).
The mark [21] stands for this setting: Preemergence, 125 g ai/ha, 0 to 100 scale where 0 is no effect and 100 is complete control.
Setting [22] is: Preemergence, 500 g ai/ha, visual rating on 0 to 100 scale (0 no effect, 100 complete control).

Data on six compounds can be found in patent US10294202B2, “Pyrrolidinones as herbicides” (FMC Corporation, priority 2013, dated 2019).

In the case of `O=C1NCC(c2cc(F)c(F)c(F)c2)C1C(=O)Nc1ccccc1C(F)(F)F` (racemic) [Compound 33], the “Plant response rating, Velvetleaf” value in experiment [1] (setting [11]) is 20; in experiment [1] (setting [12]), 0. For the same compound, the “Cupgrass, Woolly plant response rating” value in experiment [2] (setting [13]) turned out to be 60. In addition, the “Plant response rating, Cupgrass, Woolly” value in experiment [2] (setting [14]) is recorded as 85; in experiment [2] (setting [15]), 90; in experiment [2] (setting [16]) it was 90.

`O=C1NCC(c2cc(F)c(F)c(F)c2)C1C(=O)Nc1ccccc1F` (racemic) [Compound 34]: the entries for the “Plant response rating, Velvetleaf” value in [1] (setting [11]) and in experiment [1] (setting [12]) were 20 and 0, respectively. The “Plant response rating, Cupgrass, Woolly” value is listed as 0 in experiment [2] (Postemergence, 31 g ai/ha, scale 0 (no effect) to 100 (complete control)); 0 in experiment [2] (Postemergence, 62 g ai/ha, scale 0 to 100 (0 no effect, 100 complete control)); 0 in experiment [2] (Postemergence, 125 g ai/ha, scale 0 to 100 (0 no effect, 100 complete control)); 30 in [2] (Postemergence, 250 g ai/ha, scale 0 to 100 (0 no effect, 100 complete control)); 85 in experiment [2] (setting [14]); 95 in experiment [2] (setting [15]). Also, the “Plant response rating, Cupgrass, Woolly” value in [2] (setting [16]) came out at 95. Also, the “Cupgrass, Woolly plant response rating” value in experiment [2] (setting [13]) was found to be 50.

Regarding `Cc1ccccc1NC(=O)C1C(=O)NCC1c1cc(F)c(F)c(F)c1` (racemic) [Compound 35], the “Plant response rating, Velvetleaf” value in [1] (setting [11]) and in experiment [1] (setting [12]) was 0 in each case. Further, the “Cupgrass, Woolly plant response rating” value in experiment [2] (setting [13]) is given as 55. For the same compound, the “Plant response rating, Cupgrass, Woolly” value is 80 in [2] (setting [14]), 85 in experiment [2] (setting [15]) and 90 in experiment [2] (setting [16]).

For `O=C1NCC(c2cccc(C(F)(F)F)c2)C1C(=O)Nc1ccccc1Cl` (stereo not shown) [Compound 312], the “Plant response rating, Galium” value is on record as 30 in experiment [3] (setting [17]) and 50 in [3] (setting [18]). For the same compound, the “Plant response rating, Sedge, Umbrella” value in [4] (31 g ai/ha), in [4] (62 g ai/ha), in [4] (125 g ai/ha) and in [4] (250 g ai/ha) was 0 in each case. Besides, the results for the “Plant response rating, Kochia” value in experiment [5] (setting [19]), in experiment [5] (setting [20]) and in experiment [5] (setting [21]) were 20, 40 and 20, respectively. For the same compound, the “Kochia plant response rating” value in experiment [5] (setting [22]) amounted to 70. Besides, the “Plant response rating, Ragweed” value in experiment [6] (setting [19]) is 20; in experiment [6] (setting [20]), 40; in [6] (setting [21]) it was 0. Moreover, the “Ragweed plant response rating” value in [6] (setting [22]) is 30. Further, the “Plant response rating, Rice” value in [7] (31 g ai/ha), in experiment [7] (62 g ai/ha), in experiment [7] (125 g ai/ha) and in experiment [7] (250 g ai/ha) was 0 each time. Moreover, the “Plant response rating, Ducksalad” value in experiment [8] (31 g ai/ha) was found to be 50; in experiment [8] (62 g ai/ha) it was 60; in [8] (125 g ai/ha) it was 65; in [8] (250 g ai/ha), 95. In addition, the “Plant response rating, Ryegrass, Italian” value in experiment [9] (setting [19]) is 20; in experiment [9] (setting [20]), 40; in [9] (setting [21]) it was 20. Besides, the “Ryegrass, Italian plant response rating” value in experiment [9] (setting [22]) was found to be 60. Also, the figures for the “Plant response rating, Blackgrass” value in [10] (setting [17]) and in experiment [10] (setting [18]) were 40 and 50, respectively.

In the case of `Cc1cccc(NC(=O)C2C(=O)NCC2c2cccc(C(F)(F)F)c2)c1` (stereo not shown) [Compound 317], the “Plant response rating, Galium” value in [3] (setting [17]) and in [3] (setting [18]) was 0 throughout. The “Plant response rating, Sedge, Umbrella” value in experiment [4] (31 g ai/ha), in experiment [4] (62 g ai/ha), in experiment [4] (125 g ai/ha) and in experiment [4] (250 g ai/ha) was 0 throughout. The “Plant response rating, Kochia” value in experiment [5] (setting [19]), in experiment [5] (setting [20]) and in experiment [5] (setting [21]) was 0 throughout. In [5] (setting [22]), the “Kochia plant response rating” value came to 0. In addition, the “Plant response rating, Ragweed” value in [6] (setting [19]), in experiment [6] (setting [20]) and in [6] (setting [21]) was 0 each time. In addition, in experiment [6] (setting [22]), the “Ragweed plant response rating” value came to 0. Further, the “Plant response rating, Rice” value in experiment [7] (31 g ai/ha), in [7] (62 g ai/ha), in experiment [7] (125 g ai/ha) and in experiment [7] (250 g ai/ha) was 0 each time. In addition, the “Plant response rating, Ducksalad” value in experiment [8] (31 g ai/ha), in experiment [8] (62 g ai/ha), in experiment [8] (125 g ai/ha) and in [8] (250 g ai/ha) was 0 each time. The “Plant response rating, Ryegrass, Italian” value in experiment [9] (setting [19]), in experiment [9] (setting [20]) and in [9] (setting [21]) was 0 throughout. In addition, the “Ryegrass, Italian plant response rating” value in experiment [9] (setting [22]) is 0. The “Plant response rating, Blackgrass” value in experiment [10] (setting [17]) is 0; in experiment [10] (setting [18]), 20.

For the compound `O=C1NCC(c2cccc(OC(F)F)c2)C1C(=O)Nc1cccc(F)c1F` (stereo not shown) [Compound 324], the entries for the “Plant response rating, Galium” value in experiment [3] (setting [17]) and in experiment [3] (setting [18]) were 40 and 60, respectively. Also, the “Plant response rating, Sedge, Umbrella” value in experiment [4] (31 g ai/ha), in [4] (62 g ai/ha), in [4] (125 g ai/ha) and in experiment [4] (250 g ai/ha) was 0 each time. The “Plant response rating, Kochia” value in experiment [5] (setting [19]) is on record as 50; in experiment [5] (setting [20]), 80; in experiment [5] (setting [21]), 70. The “Kochia plant response rating” value in [5] (setting [22]) amounted to 80. In addition, the entries for the “Plant response rating, Ragweed” value in experiment [6] (setting [19]), in experiment [6] (setting [20]) and in experiment [6] (setting [21]) were 20, 50 and 30, respectively. In experiment [6] (setting [22]), the “Ragweed plant response rating” value was determined as 60. Besides, the “Plant response rating, Rice” value in experiment [7] (31 g ai/ha), in experiment [7] (62 g ai/ha), in [7] (125 g ai/ha) and in experiment [7] (250 g ai/ha) was 0 throughout. Also, the “Plant response rating, Ducksalad” value was found to be 40 in experiment [8] (31 g ai/ha), 70 in experiment [8] (62 g ai/ha), 95 in [8] (125 g ai/ha) and 100 in experiment [8] (250 g ai/ha). The “Plant response rating, Ryegrass, Italian” value came out at 30 in [9] (setting [19]), 50 in experiment [9] (setting [20]) and 30 in experiment [9] (setting [21]). Moreover, the “Ryegrass, Italian plant response rating” value in [9] (setting [22]) turned out to be 40. In addition, the “Plant response rating, Blackgrass” value is given as 60 in experiment [10] (setting [17]) and 70 in experiment [10] (setting [18]).
